Measurements from the supplement of paper PMC10307832.

How the values were obtained:
Experiment in all cases: relative viability (nuclei count vs DMSO), 5 days (fraction); higher = more cells survive
[1] = compound: CC1=C(C(=NN1)C)CC2=C(C3=C(S2)N(C(=O)N(C3=O)C)CC(C)C)C(=O)N4C[C@@H](CO4)O + CC(C)C[C@H](NC(=O)[C@H](Cc1ccccc1)NC(=O)c1cnccn1)B(O)O [Bortezomib] (partner 0.002 µM)
Summary of the method: (§1)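 Cells from lung cancer lines were seeded into 1536-well plates and, one day later, dosed by pin tool. Treatments were either a single drug or a fixed dose of an anchor drug with five library-drug doses (not always all listed) in √10 steps. After 5 days, nuclei were stained in a one-step fixation (final 0.05% Triton X-100, 1% formaldehyde, 1 ug/ml Hoechst) and counted on 4× images, and relative viability is the treated-to-vehicle nuclei ratio, as the median of duplicate plates.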

[2] = compound: CC1=C(C(=NN1)C)CC2=C(C3=C(S2)N(C(=O)N(C3=O)C)CC(C)C)C(=O)N4C[C@@H](CO4)O + CS(=O)(=O)N1CCN(Cc2cc3nc(-c4cccc5[nH]ncc45)nc(N4CCOCC4)c3s2)CC1 [Pictilisib] (partner 1 µM)
Summary of the method: as §1

[3] = compound: CC1=C(C(=NN1)C)CC2=C(C3=C(S2)N(C(=O)N(C3=O)C)CC(C)C)C(=O)N4C[C@@H](CO4)O + O=C(c1cc(Cc2n[nH]c(=O)c3ccccc23)ccc1F)N1CCN(C(=O)C2CC2)CC1 [Olaparib] (partner 8 µM)
Summary of the method: as §1

IDH-C35 + Dasatinib = compound: Cc1ccccc1C(C(=O)NC1CCCCC1)N(C(=O)Cn1ccnc1C)c1cccc(F)c1 [IDH-C35] + Cc1nc(Nc2ncc(C(=O)Nc3c(C)cccc3Cl)s2)cc(N2CCN(CCO)CC2)n1 [Dasatinib] (partner 0.075 µM)
Summary of the method: as §1

| Cell Line | relative viability ([1]; first compound 0.0025 µM) | relative viability ([1]; first compound 0.007906 µM) | relative viability ([1]; first compound 0.025 µM) | relative viability ([1]; first compound 0.07906 µM) | relative viability ([1]; first compound 0.25 µM) | relative viability ([2]; first compound 0.0025 µM) | relative viability ([2]; first compound 0.007906 µM) | relative viability ([2]; first compound 0.025 µM) | relative viability ([2]; first compound 0.07906 µM) | relative viability ([2]; first compound 0.25 µM) | relative viability ([3]; first compound 0.0025 µM) | relative viability ([3]; first compound 0.007906 µM) | relative viability ([3]; first compound 0.025 µM) | relative viability ([3]; first compound 0.07906 µM) | relative viability ([3]; first compound 0.25 µM) | relative viability (IDH-C35 + Dasatinib; first compound 0.08 µM) | relative viability (IDH-C35 + Dasatinib; first compound 0.253 µM) | relative viability (IDH-C35 + Dasatinib; first compound 0.8 µM) | relative viability (IDH-C35 + Dasatinib; first compound 2.53 µM) | relative viability (IDH-C35 + Dasatinib; first compound 8 µM) |
| --- | --- | --- | --- | --- | --- | --- | --- | --- | --- | --- | --- | --- | --- | --- | --- | --- | --- | --- | --- | --- |
| H3255 | 0.819 | 0.79 | 0.734 | 0.758 | 1.02 | 0.523 | 0.473 | 0.43 | 0.45 | 0.62 | 0.555 | 0.56 | 0.52 | 0.546 | 0.576 | 0.406 | 0.415 | 0.306 | 0.453 | 0.331 |
| HARA | 1.21 | 1.15 | 1 | 0.979 | 1.1 | 0.473 | 0.372 | 0.369 | 0.506 | 0.283 | 1.1 | 0.76 | 0.689 | 0.542 | 0.81 | 0.298 | 0.271 | 0.294 |  | 0.328 |
| HCC-15 | 1 | 0.945 | 0.979 | 1.02 | 1.2 | 0.76 | 0.911 | 0.846 | 0.782 | 0.856 | 0.721 | 0.707 | 0.69 | 0.697 | 0.766 | 0.542 | 0.639 | 0.599 |  | 0.59 |
| HCC-44 | 0.901 | 0.904 | 0.9 | 0.893 | 0.797 | 0.615 | 0.689 | 0.616 | 0.6 | 0.616 | 1.02 | 1 | 0.952 | 0.891 | 1.05 |  |  |  |  |  |
| IA-LM | 0.923 | 0.652 | 0.815 | 1 | 0.883 | 0.393 | 0.272 | 0.395 | 0.347 | 0.375 | 0.907 | 1.03 | 0.807 | 0.757 | 0.865 |  |  |  |  |  |
| LK-2 |  |  |  |  |  | 0.548 | 0.509 | 0.67 | 0.696 | 0.607 | 0.743 | 0.608 | 0.504 | 0.556 | 0.6 | 0.243 | 0.295 | 0.27 | 0.299 | 0.335 |
| NCI-H358 |  |  |  |  |  | 0.41 | 0.348 | 0.359 | 0.375 | 0.375 | 0.596 | 0.557 | 0.625 | 0.605 | 0.684 | 0.205 | 0.159 | 0.141 | 0.193 | 0.169 |
| NCI-H522 |  |  |  |  |  |  |  |  |  |  | 0.793 | 0.646 | 0.53 | 0.4 | 0.348 | 0.977 | 0.976 | 0.858 | 1.01 | 0.905 |
| NCI-H1299 | 1.03 | 0.946 | 0.975 | 1.01 | 1.01 | 0.772 | 0.958 | 0.931 | 0.944 | 0.945 | 0.986 | 0.991 | 0.975 | 1.01 | 0.988 |  |  |  |  |  |
| NCI-H1395 |  |  |  |  |  | 0.63 | 0.598 | 0.525 | 0.634 | 0.735 | 0.552 | 0.408 | 0.38 | 0.342 | 0.403 | 0.416 | 0.376 | 0.4 | 0.41 | 0.381 |
| NCI-H1563 | 0.943 | 0.938 | 0.938 | 0.811 | 0.818 | 0.649 | 0.68 | 0.649 | 0.672 | 0.735 |  |  |  |  |  | 0.455 | 0.472 | 0.446 | 0.487 | 0.465 |
| NCI-H1648 |  |  |  |  |  |  |  |  |  |  | 0.878 | 0.724 | 0.63 | 0.782 | 0.887 |  |  |  |  |  |
| NCI-H1703 | 0.265 | 0.223 | 0.221 | 0.3 | 0.256 | 0.223 | 0.224 | 0.264 | 0.256 | 0.242 | 0.467 | 0.348 | 0.422 | 0.41 | 0.447 |  |  |  |  |  |
| NCI-H1793 |  |  |  |  |  | 0.308 | 0.395 | 0.166 | 0.226 | 0.272 | 0.896 | 0.975 | 0.829 | 0.768 | 0.719 | 0.409 | 0.423 | 0.364 |  | 0.414 |
| NCI-H1944 |  |  |  |  |  | 0.351 | 0.376 | 0.356 | 0.389 | 0.386 | 0.455 | 0.427 | 0.423 | 0.373 | 0.423 | 0.233 | 0.228 | 0.211 | 0.228 | 0.211 |
| NCI-H2170 |  |  |  |  |  | 0.228 | 0.293 | 0.298 | 0.341 | 0.297 | 0.582 | 0.636 | 0.676 | 0.597 | 0.666 | 0.542 | 0.594 | 0.594 | 0.678 | 0.538 |
| NCI-H2342 |  |  |  |  |  |  |  |  |  |  | 0.463 | 0.473 | 0.374 | 0.425 | 0.403 | 0.308 | 0.381 | 0.32 | 0.374 | 0.299 |
| SK-MES-1 |  |  |  |  |  | 0.385 | 0.421 | 0.369 | 0.398 | 0.432 | 0.702 | 0.756 | 0.691 | 0.82 | 0.774 | 0.433 | 0.353 | 0.424 | 0.355 | 0.336 |
| SW 900 |  |  |  |  |  |  |  |  |  |  | 0.805 | 1.09 | 0.846 | 1 | 0.893 | 0.534 | 0.764 | 0.478 | 0.578 | 0.552 |
